# Assays:
# HIV-1 infected cells = details: cultures of HIV-1 infected cells (Yamagoe 1991); cited from earlier work
# [1] = rodents (Shibata 1989); cited from earlier work
# [2] = tested on: poly (ADP-ribose) synthetase; details: crude or partially purified enzyme (Banasik 1992); cited from earlier work
# [3] = human, in vivo; cited from earlier work
# [4] = Plasma nicotinamide, NAL and NAL-X levels by HPLC after i.p. nicotinylalanine with or without ASA in uninfected mice; format: in vivo, C57BL/6 mice; details: ASA at 20 and 100 mg/kg added to NAL
# Method: The concentration of nicotinamide and its major metabolites were determined by comparison of peak area ratios of the unknown versus internal standard (6-methylnicotinamide, Sigma Chemical Company) to the standard curves run in control mouse blood plasma.
# Mice were treated with racemic nicotinylalanine alone (400 mg/kg) or in combination with acetyl salicylic acid (ASA) at a dose of either 20 mg/kg or 100 mg/kg body weight. […] Control mice received the vehicle for the drug compositions, being phosphate buffered saline (PBS), at the same volume on the same dose schedule as the drug-treated mice. Chronic dosing was performed daily for two weeks, Monday through Friday, and one group of mice received only a single (acute) dose of nicotinylalanine. All mice were killed two hours after their final dose and blood was collected by cardiac puncture and stored on ice, until centrifugation in a microfuge at 10,000 rpm to obtain plasma.
# Concentrations of nicotinamide, nicotinamide-oxide, 1-methyl-nicotinamide, and nicotinylalanine extracted from 90% methanol, dried under N2, and reconstituted in water as above were determined by comparison of the peak area ratios of the unknown vs. the internal standard to the standard curve. Concentrations of the unidentified nicotinylalanine metabolite (NAL-X) were determined in the same way as above, except peaks were compared to the standard curve for known nicotinylalanine. The results are expressed as nanomoles of nicotinamide and nicotinylalanine per ml of plasma (nmol/ml).
# [5] = humans (Levy 1965); cited from earlier work
# kynureninase = details: co-factor for kynureninase (Takeuchi and Shibata 1984); cited from earlier work
smiles,measurement,setting,value
NC(=O)c1ccccc1 [benzamide],Antiviral activity (in words),HIV-1 infected cells,significant antiviral activity
NC(=O)c1cccnc1 [nicotinamide],Fraction converted to nicotinuric acid,[1],approximately 16%
same,Antiviral activity (in words),HIV-1 infected cells,significant antiviral activity
same,Inhibition of poly (ADP-ribose) synthetase (in words),[2],effective inhibitors of poly (ADP-ribose) synthetase
same,Side effects,[3],without any significant side effects
"CC(=O)Oc1ccccc1C(=O)O [ASA, acetylsalicylic acid, reference compound]",Effect of added ASA on NAL-dependent nicotinamide plasma levels,[4],increases the NAL-dependent nicotinamide plasma levels in a dose-related manner
same,Fraction conjugated to form salicyluric acid,[5],up to 75%
Cc1ncc(COP(=O)(O)O)c(C=O)c1O [pyridoxal phosphate],Rate of conversion of nicotinylalanine to nicotinamide (in words),kynureninase,increases the rate of conversion of nicotinylalanine to nicotinamide

# Source: patent US5916906A, “Compositions comprising nicotinylalanine and an inhibitor of glycine conjugation or vitamin B6” (priority 1997, dated 1999)
